From patent publication US20080139612A1, “Chemical Compound” (ASTRAZENECA AB, priority 2006, published 2008)
pIC50: −log10 of the molar value.

Tests used:
CCR5 = target: T1, CCR5 (Homo sapiens, UniProt P51681); assay: Displacement of radio-labelled CCR5 antagonist from Allo-T cell membranes (inhibition of MIP-1β binding); settings: membranes of human allo-reactive T cells; 2 nM [3H] CCR5 antagonist; 2 hours at room temperature; read-out: IC50, concentration which displaced 50% of bound radio-labelled CCR5 antagonist
T1 construct: After 21 to 34 days culture, the membranes were prepared from the cells; endogenous in cells; host or cells: Allo-T cells (allo-reactive T cell line from human PBMCs), membrane preparation
T1 sequence (P51681 whole entry): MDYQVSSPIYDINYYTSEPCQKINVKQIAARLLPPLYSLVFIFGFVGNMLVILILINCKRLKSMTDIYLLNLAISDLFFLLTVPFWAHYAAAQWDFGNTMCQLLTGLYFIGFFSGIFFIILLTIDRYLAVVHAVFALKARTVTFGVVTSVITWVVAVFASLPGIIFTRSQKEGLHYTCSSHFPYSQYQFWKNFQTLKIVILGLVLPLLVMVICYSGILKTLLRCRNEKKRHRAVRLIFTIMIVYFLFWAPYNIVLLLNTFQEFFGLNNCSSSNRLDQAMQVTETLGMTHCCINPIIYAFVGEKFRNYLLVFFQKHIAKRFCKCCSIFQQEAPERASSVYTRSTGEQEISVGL
Procedure: The ability of the compound of the present invention to inhibit the binding of MIP-1β (CCL-4) was measured:
An allo-reactive T cell line was generated by exposure of human peripheral blood mononuclear cells (PBMCs) to L-DR4/B7 fibroblasts (immobilised with glutaraldehyde fixation and irradiation) and subsequent expansion with anti-CD3 and IL-2 for 14 days. The resultant Allo-T cells were frozen. When required, the cells were grown and re-challenged with irradiated HLA-DR4+ve PBMCs and expanded with anti-CD3 and IL-2. After 21 to 34 days culture, the membranes were prepared from the cells. These membranes were incubated in 96-well plates with 2 nM of the radio-labelled CCR5 antagonist [^3H]1-{(3R)-3-(3,5-difluorophenyl)-3-[4-(methylsulfonyl)phenyl]propyl}-4-(2-{[4-(methylsulfonyl)phenyl]sulfonyl}ethyl)piperidine and various concentrations of the compound of the invention for 2 hours at room temperature. The plates were then harvested onto GF/B filter plates (which had been pre-soaked soaked in 0.3% PEI containing 0.2% BSA for 10 min at 4° C.) using a Packard Unifilter harvester using 10 wash steps. The amount of [^3H]1-{(3R)-3-(3,5-difluorophenyl)-3-[4-(methylsulfonyl)phenyl]propyl}-4-(2-{[4-(methylsulfonyl)phenyl]sulfonyl}ethyl)piperidine retained on the filter plates was determined by scintillation counting. […]

[1] = test system: T-cells, chemotaxis in response to MIP-1β (CCL-4); assay: Inhibition of chemotaxis of T-cells in response to MIP-1β (CCL-4); format: cell-based; settings: human allo-reactive T cell line; 1 nM MIP-1β; 1 hour at 37° C.; read-out: IC50, concentration which inhibited 50% of the chemotactic response
Procedure: The ability of the compound of the present invention to inhibit the chemotaxis of T-cells in response to MIP-1β (CCL-4) was measured:
An allo-reactive T cell line was generated by exposure of human peripheral blood mononuclear cells (PBMCs) to L-DR4/B7 fibroblasts (immobilised with glutaraldehyde fixation and irradiation) and subsequent expansion with IL-2 and anti-CD3. When required, the cells were grown and re-challenged with irradiated HLA-DR4+ve PBMCs and expanded with anti-CD3 and IL-2. The cells were used between day 21 and 34. 1 nM of MIP-1β plus varying concentrations of the CCR5 antagonist [^3H]1-{(3R)-3-(3,5-difluorophenyl)-3-[4-(methylsulfonyl)phenyl]propyl}-4-(2-{[4-(methylsulfonyl)phenyl]sulfonyl}ethyl)piperidine were placed in assay buffer in the bottom of a 96-well Neuroprobe Chemo TX chemotaxis plate and cells that had been loaded with a fluorescent dye and pre-incubated with varying concentration of the CCR5 antagonist were pipetted onto the surface of a 5 micron pore size membrane according to the manufacturers specifications. After 1 hour of incubation with the compound of the invention at 37° C., the unmigrated cells were washed off the surface of the plate with PBS and the […] by reading on a 96-well fluorescent plate reader. […]

Work on `Cc1nnc(C(C)(F)F)n1C1CCN([C@H](C)C[C@@H](c2cc(F)cc(F)c2)C2CCN(S(C)(=O)=O)CC2)CC1` (single isomer, unassigned) yielded a pIC50 (CCR5) of 8.47 and a pIC50 [1] of 8.68.
For `Cc1nnc(C(F)(F)F)n1C1CCN(CC[C@@H](c2cc(F)cc(F)c2)C2CCN(S(C)(=O)=O)CC2)CC1` [Comparator Compound A, 1-{(3R)-3-(3,5-difluorophenyl)-3-[1-(methylsulfonyl)piperidin-4-yl]propyl}-4-[3-methyl-5-(trifluoromethyl)-4H-1,2,4-triazol-4-yl]piperidine], the pIC50 (CCR5) was 7.41 and the pIC50 [1] was 7.17.
